This is an account of results in patent publication US20230022400A1, “IMMUNOMODULATORS” (Bristol-Myers Squibb Company, priority 2019, published 2023).

Where a SMILES comes first, the peptide text is derived from it. Bridges are numbered along the chain shown (N, C = ends). [ ]: non-standard residue; d: D form. The star is where a group is joined. Trp(1-CH2CO2Me) = COC(=O)Cn1cc(C[C@H](N)C(=O)O)c2ccccc21; Trp(1-CH2COOH) = N[C@@H](Cc1cn(CC(=O)O)c2ccccc12)C(=O)O; X19 = c1ccc(N2CCN(c3ncnc(*)n3)CC2)cc1; Hyp = O=C(O)[C@@H]1C[C@@H](O)CN1; NMeNle = CCCC[C@H](NC)C(=O)O; X18 = c1ccc(-c2ccnc(*)n2)cc1; X17 = Clc1cc2nc(*)sc2cc1Cl; NMeA = CN[C@@H](C)C(=O)O; X14 = Clc1cccc2sc(*)nc12; Dab = NCC[C@H](N)C(=O)O; Dap = NC[C@H](N)C(=O)O; X6 = c1ccc2nc(*)cnc2c1; X9 = Fc1cccc2sc(*)nc12; X1 = c1ccc2sc(*)nc2c1; X12 = Brc1cnc(*)nc1

The experiment concerns the target T1, PD-1/PD-L1 interaction (PD-1-Ig / PD-L1-His) (Homo sapiens, UniProt Q9NZQ7).
T1 construct: TVMV protease site (linker) (C); made in house; host or cells: HEK293T cells
As to the kind of experiment: PD-1/PD-L1 Homogenous Time-Resolved Fluorescence (HTRF) binding assay. Conditions: PD-L1-His 10 nM final, PD-1-Ig 20 nM final; inhibitors pre-incubated with PD-L1-His for 15 m. An excerpt: The ability of the compounds of formula (I) to bind to PD-L1 was investigated using a PD-1/PD-L1 Homogenous Time-Resolved Fluorescence (HTRF) binding assay.
The interaction of PD-1 and PD-L1 can be assessed using soluble, purified preparations of the extracellular domains of the two proteins. The PD-1 and PD-L1 protein extracellular domains were expressed as fusion proteins with detection tags, for PD-1, the tag was the Fc portion of Immunoglobulin (PD-1-Ig) and for PD-L1 it was the 6 histidine motif (PD-L1-His). All binding studies were performed in an HTRF assay buffer consisting of dPBS supplemented with 0.1% […] bovine serum albumin and 0.05% (v/v) Tween-20. For the h/PD-L1-His binding assay, inhibitors were pre-incubated with PD-L1-His (10 nM final) for 15 m in 4 μl of assay buffer, followed by addition of PD-1-Ig (20 nM final) in 1 μl of assay buffer and further incubation for 15 m. HTRF detection was achieved using europium crypate-labeled anti-Ig (1 nM final) and allophycocyanin (APC) labeled anti-His (20 nM final). Antibodies were diluted in HTRF detection buffer and 5 μl was dispensed on top of the binding reaction. The reaction mixture was allowed to equilibrate for 30 minutes and the resulting signal (665 nm/620 nm ratio) was obtained using an EnVision fluorometer. Additional binding assays were established between the human proteins PD-1-Ig/PD-L2-His (20 & 5 nM, respectively) and CD80-His/PD-L1-Ig (100 & 10 nM, respectively).
Recombinant Proteins: Human PD-1 (25-167) with a C-terminal human Fc domain of immunoglobulin G (Ig) epitope tag [hPD-1 (25-167)-3S-IG] and human PD-L1 (18-239) with a C-terminal His epitope tag [hPD-L1(18-239)-TVMV-His] were expressed in HEK293T cells and purified sequentially by ProteinA affinity chromatography and size exclusion chromatography. Human PD-L2-His and CD80-His was obtained through commercial sources.
Table 1 lists the IC50 values for representative examples of this disclosure measured in the PD-1/PD-L1 Homogenous Time-Resolved Fluorescence (HTRF) binding assay.

T1 sequence (Q9NZQ7 18-239): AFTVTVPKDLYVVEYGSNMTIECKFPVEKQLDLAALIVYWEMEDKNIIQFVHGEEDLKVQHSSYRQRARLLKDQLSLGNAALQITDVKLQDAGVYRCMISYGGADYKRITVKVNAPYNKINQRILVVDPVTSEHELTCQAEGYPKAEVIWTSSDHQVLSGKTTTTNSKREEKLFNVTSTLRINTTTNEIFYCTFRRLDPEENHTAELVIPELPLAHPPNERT

One may read the IC50 as the midpoint of a concentration-inhibition curve. The compound `CCCC[C@H]1C(=O)N(C)[C@@H](CCCC)C(=O)N[C@@H](CC(C)C)C(=O)N[C@H](C(=O)NCC(N)=O)CSCC(=O)N[C@@H](Cc2ccc(O)cc2)C(=O)N(C)[C@@H](C)C(=O)N[C@@H](CC(N)=O)C(=O)N2CCC[C@H]2C(=O)N[C@@H](CNc2nccc(-c3ccccc3)n2)C(=O)N[C@@H](CC(C)C)C(=O)N2C[C@H](O)C[C@H]2C(=O)N[C@@H](Cc2c[nH]c3ccccc23)C(=O)N[C@@H](CCN)C(=O)N[C@@H](Cc2cn(CC(=O)O)c3ccccc23)C(=O)N1C` [Compound 1006] ({CH2CO}-Y[NMeA]NP[Dap](X18)L[Hyp]W[Dab][Trp(1-CH2COOH)][NMeNle][NMeNle]LCG-NH2; thioether N-14) had a concentration for half-maximal inhibition (IC50) of 11 nM.
As for `CCCC[C@H]1C(=O)N(C)[C@@H](CCCC)C(=O)N[C@@H](CC(C)C)C(=O)N[C@H](C(=O)NCC(N)=O)CSCC(=O)N[C@@H](Cc2ccc(O)cc2)C(=O)N(C)[C@@H](C)C(=O)N[C@@H](CC(N)=O)C(=O)N2CCC[C@H]2C(=O)N[C@@H](CNc2ncnc(N3CCN(c4ccccc4)CC3)n2)C(=O)N[C@@H](CC(C)C)C(=O)N2C[C@H](O)C[C@H]2C(=O)N[C@@H](Cc2c[nH]c3ccccc23)C(=O)N[C@@H](CCNc2ncnc(N3CCN(c4ccccc4)CC3)n2)C(=O)N[C@@H](Cc2cn(CC(=O)O)c3ccccc23)C(=O)N1C` [Compound 1009] ({CH2CO}-Y[NMeA]NP[Dap](X19)L[Hyp]W[Dab](X19)[Trp(1-CH2COOH)][NMeNle][NMeNle]LCG-NH2; thioether N-14), the figure is 9.8 nM; as for `CCCC[C@H]1C(=O)N(C)[C@@H](CCCC)C(=O)N[C@@H](CC(C)C)C(=O)N[C@H](C(=O)NCC(N)=O)CSCC(=O)N[C@@H](Cc2ccc(O)cc2)C(=O)N(C)[C@@H](C)C(=O)N[C@@H](CC(N)=O)C(=O)N2CCC[C@H]2C(=O)N[C@@H](CNc2ncc(Br)cn2)C(=O)N[C@@H](CC(C)C)C(=O)N2C[C@H](O)C[C@H]2C(=O)N[C@@H](Cc2c[nH]c3ccccc23)C(=O)N[C@@H](CCNc2ncc(Br)cn2)C(=O)N[C@@H](Cc2cn(CC(=O)O)c3ccccc23)C(=O)N1C` [Compound 1010] ({CH2CO}-Y[NMeA]NP[Dap](X12)L[Hyp]W[Dab](X12)[Trp(1-CH2COOH)][NMeNle][NMeNle]LCG-NH2; thioether N-14), 4.9 nM.
Regarding `CCCC[C@H]1C(=O)N(C)[C@@H](CCCC)C(=O)N[C@@H](CC(C)C)C(=O)N[C@H](C(=O)NCC(N)=O)CSCC(=O)N[C@@H](Cc2ccc(O)cc2)C(=O)N(C)[C@@H](C)C(=O)N[C@@H](CC(N)=O)C(=O)N2CCC[C@H]2C(=O)N[C@@H](CNc2nc3ccccc3s2)C(=O)N[C@@H](CC(C)C)C(=O)N2C[C@H](O)C[C@H]2C(=O)N[C@@H](Cc2c[nH]c3ccccc23)C(=O)N[C@@H](CCN)C(=O)N[C@@H](Cc2cn(CC(=O)O)c3ccccc23)C(=O)N1C` [Compound 11001] ({CH2CO}-Y[NMeA]NP[Dap](X1)L[Hyp]W[Dab][Trp(1-CH2COOH)][NMeNle][NMeNle]LCG-NH2; thioether N-14), the IC50 amounted to 4 nM.
Take `CCCC[C@H]1C(=O)N(C)[C@@H](CCCC)C(=O)N[C@@H](CC(C)C)C(=O)N[C@H](C(=O)NCC(N)=O)CSCC(=O)N[C@@H](Cc2ccc(O)cc2)C(=O)N(C)[C@@H](C)C(=O)N[C@@H](CC(N)=O)C(=O)N2CCC[C@H]2C(=O)N[C@@H](CNc2nc3ccccc3s2)C(=O)N[C@@H](CC(C)C)C(=O)N2C[C@H](O)C[C@H]2C(=O)N[C@@H](Cc2c[nH]c3ccccc23)C(=O)N[C@@H](CCNc2nc3ccccc3s2)C(=O)N[C@@H](Cc2cn(CC(=O)O)c3ccccc23)C(=O)N1C` [Compound 11002] ({CH2CO}-Y[NMeA]NP[Dap](X1)L[Hyp]W[Dab](X1)[Trp(1-CH2COOH)][NMeNle][NMeNle]LCG-NH2; thioether N-14): the IC50 turned out to be 4.5 nM.
Next, `CCCC[C@H]1C(=O)N(C)[C@@H](CCCC)C(=O)N[C@@H](CC(C)C)C(=O)N[C@H](C(=O)NCC(N)=O)CSCC(=O)N[C@@H](Cc2ccc(O)cc2)C(=O)N(C)[C@@H](C)C(=O)N[C@@H](CC(N)=O)C(=O)N2CCC[C@H]2C(=O)N[C@@H](CNc2cnc3ccccc3n2)C(=O)N[C@@H](CC(C)C)C(=O)N2C[C@H](O)C[C@H]2C(=O)N[C@@H](Cc2c[nH]c3ccccc23)C(=O)N[C@@H](CCN)C(=O)N[C@@H](Cc2cn(CC(=O)O)c3ccccc23)C(=O)N1C` [Compound 11003] ({CH2CO}-Y[NMeA]NP[Dap](X6)L[Hyp]W[Dab][Trp(1-CH2COOH)][NMeNle][NMeNle]LCG-NH2; thioether N-14): 7.1 nM; `CCCC[C@H]1C(=O)N(C)[C@@H](CCCC)C(=O)N[C@@H](CC(C)C)C(=O)N[C@H](C(=O)NCC(N)=O)CSCC(=O)N[C@@H](Cc2ccc(O)cc2)C(=O)N(C)[C@@H](C)C(=O)N[C@@H](CC(N)=O)C(=O)N2CCC[C@H]2C(=O)N[C@@H](CNc2nc3ccccc3s2)C(=O)N[C@@H](CC(C)C)C(=O)N2C[C@H](O)C[C@H]2C(=O)N[C@@H](Cc2c[nH]c3ccccc23)C(=O)N[C@@H](CCN)C(=O)N[C@@H](Cc2cn(CC(=O)OC)c3ccccc23)C(=O)N1C` [Compound 11004] ({CH2CO}-Y[NMeA]NP[Dap](X1)L[Hyp]W[Dab][Trp(1-CH2CO2Me)][NMeNle][NMeNle]LCG-NH2; thioether N-14): 5.6 nM.
On to `CCCC[C@H]1C(=O)N(C)[C@@H](CCCC)C(=O)N[C@@H](CC(C)C)C(=O)N[C@H](C(=O)NCC(N)=O)CSCC(=O)N[C@@H](Cc2ccc(O)cc2)C(=O)N(C)[C@@H](C)C(=O)N[C@@H](CC(N)=O)C(=O)N2CCC[C@H]2C(=O)N[C@@H](CNc2nc3cc(Cl)c(Cl)cc3s2)C(=O)N[C@@H](CC(C)C)C(=O)N2C[C@H](O)C[C@H]2C(=O)N[C@@H](Cc2c[nH]c3ccccc23)C(=O)N[C@@H](CCNc2nc3cc(Cl)c(Cl)cc3s2)C(=O)N[C@@H](Cc2cn(CC(=O)O)c3ccccc23)C(=O)N1C` [Compound 11005] ({CH2CO}-Y[NMeA]NP[Dap](X17)L[Hyp]W[Dab](X17)[Trp(1-CH2COOH)][NMeNle][NMeNle]LCG-NH2; thioether N-14), for which the IC50 worked out at 89 nM.
Next, `CCCC[C@H]1C(=O)N(C)[C@@H](CCCC)C(=O)N[C@@H](CC(C)C)C(=O)N[C@H](C(=O)NCC(N)=O)CSCC(=O)N[C@@H](Cc2ccc(O)cc2)C(=O)N(C)[C@@H](C)C(=O)N[C@@H](CC(N)=O)C(=O)N2CCC[C@H]2C(=O)N[C@@H](CNc2nc3c(Cl)cccc3s2)C(=O)N[C@@H](CC(C)C)C(=O)N2C[C@H](O)C[C@H]2C(=O)N[C@@H](Cc2c[nH]c3ccccc23)C(=O)N[C@@H](CCNc2nc3c(Cl)cccc3s2)C(=O)N[C@@H](Cc2cn(CC(=O)O)c3ccccc23)C(=O)N1C` [Compound 11006] ({CH2CO}-Y[NMeA]NP[Dap](X14)L[Hyp]W[Dab](X14)[Trp(1-CH2COOH)][NMeNle][NMeNle]LCG-NH2; thioether N-14): 7.9 nM; `CCCC[C@H]1C(=O)N(C)[C@@H](CCCC)C(=O)N[C@@H](CC(C)C)C(=O)N[C@H](C(=O)NCC(N)=O)CSCC(=O)N[C@@H](Cc2ccc(O)cc2)C(=O)N(C)[C@@H](C)C(=O)N[C@@H](CC(N)=O)C(=O)N2CCC[C@H]2C(=O)N[C@@H](CNc2nc3c(F)cccc3s2)C(=O)N[C@@H](CC(C)C)C(=O)N2C[C@H](O)C[C@H]2C(=O)N[C@@H](Cc2c[nH]c3ccccc23)C(=O)N[C@@H](CCNc2nc3c(F)cccc3s2)C(=O)N[C@@H](Cc2cn(CC(=O)O)c3ccccc23)C(=O)N1C` [Compound 11007] ({CH2CO}-Y[NMeA]NP[Dap](X9)L[Hyp]W[Dab](X9)[Trp(1-CH2COOH)][NMeNle][NMeNle]LCG-NH2; thioether N-14): 4 nM; `CCCC[C@H]1C(=O)N(C)[C@@H](CCCC)C(=O)N[C@@H](CC(C)C)C(=O)N[C@H](C(=O)NCC(N)=O)CSCC(=O)N[C@@H](Cc2ccc(O)cc2)C(=O)N(C)[C@@H](C)C(=O)N[C@@H](CC(N)=O)C(=O)N2CCC[C@H]2C(=O)N[C@@H](CNc2nc3c(F)cccc3s2)C(=O)N[C@@H](CC(C)C)C(=O)N2C[C@H](O)C[C@H]2C(=O)N[C@@H](Cc2c[nH]c3ccccc23)C(=O)N[C@@H](CCN)C(=O)N[C@@H](Cc2cn(CC(=O)O)c3ccccc23)C(=O)N1C` [Compound 11008] ({CH2CO}-Y[NMeA]NP[Dap](X9)L[Hyp]W[Dab][Trp(1-CH2COOH)][NMeNle][NMeNle]LCG-NH2; thioether N-14): 5.3 nM.
